Source: publication PMC11844072, “Novel 5,6-dichlorobenzimidazole derivatives as dual BRAFWT and BRAFV600E inhibitors: design, synthesis, anti-cancer activity and molecular dynamics simulations” (BMC Chemistry, 2025)

Experiments:
VEGFR-2 = VEGFR-2 (Homo sapiens, UniProt P35968); assay: VEGFR-2 kinase assay (Kinase-Glo Max luminescence)
Description: (§1) The inhibitory activity against different kinases was determined using kinase kits (BRAF WT
(§2) Glo Max luminescence kinase assay kit (Promega).
(§3) The assay was carried out according to the protocol provided by the manufacturer. A stock solution of the synthesized derivatives in 100% DMSO was prepared. Subsequently, the compounds were diluted to 10% DMSO.
(§4) A master mixture was prepared according to the number of wells. For BRAF assay each well include 6 μl of 5x Kinase Buffer 1 + 1 μl of ATP (500 μM) + 10 μl of 5X Raf substrate + 8 μl of distilled water. 1x Kinase buffer 1 was prepared by mixing 600 μl of 5x Kinase Buffer 1 with 2400 μl water to give 3 mL. Kinases were thawed on ice and were diluted with 1x Kinase Buffer 1. […]
(§5) The plate was incubated at 30 °C for 45 min. Subsequently, 50 μl of Kinase-Glo Max luminescence reagent was added to each well and the plate was covered with aluminum foil and incubated at room temperature for 15 min. Finally, the luminescence was recorded using multimode microplate reader. […]
(§6) The luminescence data were analyzed as follows. The difference between luminescence intensities in the absence of kinase (Lu t) and in the presence of kinase (Lu c) was defined as 100 %
(§7) calculated as: % activity = {(Lu t - Lu)/(Lut - Luc)} ×100%. The concentration of the test compounds required to reduce the kinase activity by 50% was determined from dose-response curves and

FGFR-1 = FGFR-1 (Homo sapiens, UniProt P11362); assay: FGFR-1 kinase assay (Kinase-Glo Max luminescence)
Description: as §1, §2, §3, §4, §5, §6, §7

HT29 cell line [1] = assay: Cell cycle analysis (PI flow cytometry); assay type: cell-based, human
Description: 7. Analysis of cell cycle distribution
HT29: Colon Cancer was obtained from Nawah Scientific Inc., (Mokatam, Cairo, Egypt). Cells were maintained in DMEM media supplemented with […] of streptomycin, 100 units/mL of penicillin and 10% of heat-inactivated fetal bovine serum in humidified, 5% (v/v) CO 2 atmosphere at 37 °C. After treatment with test compound 8m for 48h, cells (10^5 cells) are collected by trypsinization and washed twice with ice-cold PBS (pH 7.4). Cells are re-suspended in two milliliters of 60% ice-cold ethanol and incubated at 4 °C for 1h for fixation. Fixed cells are washed twice again with PBS (pH 7.4) and re-suspended in 1 mL of PBS containing 50 μg/mL RNAase A and 10 μg/mL propidium iodide (PI). After 20 min of incubation in dark at 37 °C, cells are analyzed for DNA contents using flow cytometry analysis using FL2 (λex/em 535/617 nm) signal detector (ACEA Novocyte™ flowcytometer, ACEA Biosciences Inc., San Diego, CA, USA). For each sample, 12,000 events are acquired. Cell cycle distribution is calculated using ACEA NovoExpress™ software (ACEA Biosciences Inc., San Diego, CA, USA). […]

HT29 cell line [2] = assay: Apoptosis assay (Annexin V-FITC/PI); assay type: cell-based, human
Description: As stated in the Additional file A, the populations of apoptotic and necrotic cells of HT29 cell line were detected after treatment with 10h employing Annexin V-FITC apoptosis detection kit (For further details see Additional file A). […]
HT29: Colon Cancer was obtained from Nawah Scientific Inc., (Mokatam, Cairo, Egypt). […]
Apoptosis and necrosis cell populations are determined using Annexin V-FITC apoptosis detection kit (Abcam Inc., Cambridge Science Park, Cambridge, UK) coupled with 2 fluorescent channels flowcytometry. After treatment with test compounds for 48h, cells (10^5 cells) are collected by trypsinization and washed twice with ice-cold PBS (pH 7.4). Then, cells are incubated in dark with 0.5 ml of Annexin V-FITC/PI solution for 30 min in dark at room temperature according to manufacturer protocol. After staining, cells are injected via ACEA Novocyte™ flowcytometer (ACEA Biosciences Inc., San Diego, CA, USA) and analysed for FITC and PI fluorescent signals using FL1 and FL2 signal detector, respectively (λex/em 488/530 nm for FITC and λex/em 535/617 nm for PI). For each sample, 12,000 events are acquired and positive FITC and/or PI cells are quantified by quadrant analysis and calculated using ACEA NovoExpress™ software (ACEA Biosciences Inc., San Diego, CA,

BRAFV600E = BRAFV600E (Homo sapiens, UniProt P15056, V600E); assay: BRAFV600E kinase assay kit (Kinase-Glo Max luminescence)
BRAFV600E, sequence (P15056 whole entry V600E): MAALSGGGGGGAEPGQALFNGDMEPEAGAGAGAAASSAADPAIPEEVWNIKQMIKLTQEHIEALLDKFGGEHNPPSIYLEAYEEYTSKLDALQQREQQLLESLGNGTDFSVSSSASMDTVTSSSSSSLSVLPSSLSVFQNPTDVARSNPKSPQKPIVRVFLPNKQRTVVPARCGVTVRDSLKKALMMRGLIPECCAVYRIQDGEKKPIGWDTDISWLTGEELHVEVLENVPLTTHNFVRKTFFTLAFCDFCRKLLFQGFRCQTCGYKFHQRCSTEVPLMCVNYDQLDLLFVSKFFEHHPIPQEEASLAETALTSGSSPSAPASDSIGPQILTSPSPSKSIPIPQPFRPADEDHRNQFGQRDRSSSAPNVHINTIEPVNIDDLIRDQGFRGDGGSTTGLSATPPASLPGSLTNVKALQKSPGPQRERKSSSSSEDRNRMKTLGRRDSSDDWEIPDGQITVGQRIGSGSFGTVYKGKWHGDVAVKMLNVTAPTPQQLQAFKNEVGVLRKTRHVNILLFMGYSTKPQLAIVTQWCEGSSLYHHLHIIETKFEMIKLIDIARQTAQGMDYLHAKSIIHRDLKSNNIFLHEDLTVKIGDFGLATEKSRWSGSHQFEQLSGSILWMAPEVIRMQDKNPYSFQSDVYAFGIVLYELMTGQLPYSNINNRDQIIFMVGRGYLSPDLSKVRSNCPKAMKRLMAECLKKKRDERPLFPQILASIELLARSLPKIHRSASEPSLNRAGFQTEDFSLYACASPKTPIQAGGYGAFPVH
Description: as §1, §2, §3, §4, §5, §6, §7

HSF cell line = assay: Cytotoxicity on HSF normal cell line (SRB assay); assay type: cell-based; settings: HSF normal human skin fibroblast; mean of three ± SD
Description: The dichlorobenzimidazole derivative 10h was tested in Nawah scientific—Cairo—Egypt for its cytotoxic activity on HSF cell line as stated in the Additional file A [53, 54].
6. Analysis of 10h on HSF normal cell line
Human Skin Fibroblast (HSF) was obtained from Nawah Scientific Inc., (Mokatam, Cairo, Egypt). Cells were maintained in DMEM media supplemented with […] of streptomycin, 100 units/mL of penicillin and 10% of heat-inactivated fetal bovine serum in humidified, 5% (v/v) CO2atmosphere at 37 °C. Cell viability was assessed by SRB assay. Aliquots of 100 μL cell suspension (5x10^3 cells) were in 96-well plates and incubated in complete media for 24 h. Cells were treated with another aliquot of 100 μL media containing drugs at various concentrations.
After drug exposure, cells were fixed by replacing media with 150 μL of 10% TCA and incubated at 4 °C for 1 h. The TCA solution was removed, and the cells were washed 5 times with distilled water. Aliquots of 70 μL SRB solution (0.4% w/v) were added and incubated in a dark place at room temperature for 10 min. Plates were washed 3 times with 1% acetic acid and allowed to air-dry overnight. Then, 150 μL of TRIS (10 mM) was added to dissolve protein-bound SRB stain; the absorbance was measured at 540 nm using an Infinite F50 microplate reader (TECAN, Switzerland).
6.2. Dose response curve of 10h on HSF normal cell line
Figure 66. […]

[3] = HT29, 10h at its GI50 concentration, 48h
[4] = HT29, at its GI50 concentration, 48h

VEGFR-2, sequence (P35968 20-1356): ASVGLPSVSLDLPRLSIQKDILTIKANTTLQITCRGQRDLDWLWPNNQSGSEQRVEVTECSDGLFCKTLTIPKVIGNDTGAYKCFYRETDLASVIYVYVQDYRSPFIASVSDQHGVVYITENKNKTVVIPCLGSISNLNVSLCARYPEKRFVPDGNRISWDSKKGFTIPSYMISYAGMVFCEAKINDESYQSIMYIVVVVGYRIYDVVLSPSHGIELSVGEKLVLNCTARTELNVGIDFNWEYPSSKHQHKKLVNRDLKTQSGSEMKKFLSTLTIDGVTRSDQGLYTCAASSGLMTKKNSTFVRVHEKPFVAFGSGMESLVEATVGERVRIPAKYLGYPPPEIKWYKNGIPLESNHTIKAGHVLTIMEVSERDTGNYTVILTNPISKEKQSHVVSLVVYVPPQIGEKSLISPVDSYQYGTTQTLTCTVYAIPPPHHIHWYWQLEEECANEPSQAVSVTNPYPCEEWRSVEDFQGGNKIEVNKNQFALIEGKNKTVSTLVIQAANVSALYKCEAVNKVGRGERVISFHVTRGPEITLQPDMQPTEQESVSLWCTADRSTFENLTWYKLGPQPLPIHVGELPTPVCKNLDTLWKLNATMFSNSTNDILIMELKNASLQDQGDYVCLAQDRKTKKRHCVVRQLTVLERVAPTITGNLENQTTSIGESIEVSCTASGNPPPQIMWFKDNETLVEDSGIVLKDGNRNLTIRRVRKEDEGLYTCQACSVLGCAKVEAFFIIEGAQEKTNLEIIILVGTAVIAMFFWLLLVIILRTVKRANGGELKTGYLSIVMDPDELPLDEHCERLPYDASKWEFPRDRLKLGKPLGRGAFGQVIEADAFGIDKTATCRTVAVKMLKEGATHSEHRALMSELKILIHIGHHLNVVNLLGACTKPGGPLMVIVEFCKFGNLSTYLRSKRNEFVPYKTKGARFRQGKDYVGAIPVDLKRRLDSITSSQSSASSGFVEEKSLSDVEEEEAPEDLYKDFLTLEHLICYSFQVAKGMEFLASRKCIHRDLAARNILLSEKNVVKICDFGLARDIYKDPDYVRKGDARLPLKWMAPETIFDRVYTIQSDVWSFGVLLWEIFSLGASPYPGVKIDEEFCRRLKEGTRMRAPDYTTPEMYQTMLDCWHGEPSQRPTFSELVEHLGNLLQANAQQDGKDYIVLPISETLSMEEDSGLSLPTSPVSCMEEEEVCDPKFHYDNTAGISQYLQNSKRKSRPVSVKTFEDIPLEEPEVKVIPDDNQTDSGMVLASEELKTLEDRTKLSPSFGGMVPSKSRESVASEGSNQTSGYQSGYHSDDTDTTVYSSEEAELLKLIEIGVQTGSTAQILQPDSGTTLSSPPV
FGFR-1, sequence (P11362 22-822): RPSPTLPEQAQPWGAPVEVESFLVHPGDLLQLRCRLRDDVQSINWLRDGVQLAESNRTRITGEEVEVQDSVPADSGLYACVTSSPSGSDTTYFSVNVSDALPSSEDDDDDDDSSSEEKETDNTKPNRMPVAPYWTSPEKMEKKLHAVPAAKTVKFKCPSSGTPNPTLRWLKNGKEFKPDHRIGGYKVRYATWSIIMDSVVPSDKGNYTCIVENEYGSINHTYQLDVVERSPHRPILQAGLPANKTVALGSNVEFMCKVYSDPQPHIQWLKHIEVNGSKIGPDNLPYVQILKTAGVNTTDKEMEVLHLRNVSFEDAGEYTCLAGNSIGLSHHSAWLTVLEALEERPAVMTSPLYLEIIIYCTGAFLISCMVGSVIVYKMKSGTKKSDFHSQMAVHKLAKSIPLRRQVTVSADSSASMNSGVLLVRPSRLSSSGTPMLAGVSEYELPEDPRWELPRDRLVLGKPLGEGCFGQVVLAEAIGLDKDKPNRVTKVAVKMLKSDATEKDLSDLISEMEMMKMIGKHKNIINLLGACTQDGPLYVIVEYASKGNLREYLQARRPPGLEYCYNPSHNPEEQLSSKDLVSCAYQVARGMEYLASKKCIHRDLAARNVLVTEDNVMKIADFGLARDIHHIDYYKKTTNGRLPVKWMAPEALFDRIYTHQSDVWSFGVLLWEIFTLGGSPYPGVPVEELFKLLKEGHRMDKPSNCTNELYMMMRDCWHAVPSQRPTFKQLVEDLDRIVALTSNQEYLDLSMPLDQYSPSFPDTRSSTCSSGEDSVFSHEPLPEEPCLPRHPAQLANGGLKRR

## COC(=O)COc1ccc(C=NNC(=O)Cn2c(-c3ccc(OC)cc3)nc3cc(Cl)c(Cl)cc32)cc1 [Compound 10h, Methyl-2-(4-((2-(2-(5,6-dichloro-2-(4-methoxyphenyl)-1H-benzo[d]imidazol-1-yl)acetyl)hydrazono)methyl)phenoxy)acetate]
VEGFR-2
  IC50: 1520 ± 140 nM
FGFR-1
  IC50: > 10000 nM
HT29 cell line [1]; [3]
  %G0/G1: 62.69%
  %G2/M: 19.26%
  %S: 18.04%
  %Sub-G1: 10.45%
HT29 cell line [1]; HT29 colon cancer cell line
  effect on cell cycle progression: arrested cell cycle progression in HT29 colon cancer cell line at G2/M phase
HT29 cell line [2]; [4]
  % of cells in early apoptosis (Q2-4): 2.29%
  % of cells in late apoptosis (Q2-2): 17.56%
  % of necrotic cells (Q2-1): 3.44%
  % of viable cells (Q2-3): 76.71%
  total % of the cells in the apoptotic phases (Early and late): 19.85%
HT29 cell line [2]; HT29 colon cancer cell line
  apoptosis induction: induced apoptosis
BRAFV600E
  IC50: 2760 ± 150 nM
HSF cell line
  IC50: > 100000 nM
